Measured values: patent publication US7232812B2, “Substituted azetidine compounds, their preparation and use as medicaments” (Laboratorios de Dr. Esteve S.A., priority 2004, dated 2007)

Assays:
Assay type in all cases: in vivo
rats [1] = assay: Analgesia test in rats (carrageenan, thermal stimulus); conditions: Rattus norvegicus, oral route, 2 hours after administration, read-out: ED50 analgesic activity
Experimental: III: Analgesia Test in Rats
The inventive compounds are tested for analgesic activity as described above is carried out as described in the publication of K. Hargreaves et al., Pain, 32, 77–88, (1988). The respective part of the description is hereby incorporated by reference and forms part of the disclosure.
The rats are transferred to the experimentation laboratory, where they remain in groups of 5, in makrolon cages with a barred floor to avoid coprophagy. At the beginning of the experiment, water and food were removed, and animals were adequately weighed and marked.
Each rat receives via subplantar injection 0.1 ml of sterile saline solution into the left hind paw, followed by 0.1 ml of a 2% (weight/volume) carrageenan suspension in sterile saline solution into the right hind paw.
Two hours after the subplantar injections of carrageenan and vehicle, each rat receives by oral route the compounds to be tested, suspended in 5% (weight/volume) gum arabic, administered at 10 ml per kg of body weight.
Two hours after the administration of the compounds to be tested, the values for analgesic activity are determined. To this purpose, the rats are transferred to the methacrylate chambers of an analgesimeter provided with a glass floor. […]

PGE2 production [2] = assay: PGE2 production in rat inflammatory exudate; conditions: rats, oral route, carrageenan sponge exudate, read-out: PGE2 Inflam. exudade ED50
Experimental: (§1) VI: PGE2 Production in Rat Inflammatory Exudate and Gastric Mucosa
(§2) The PGE2 production in rat inflammatory exudate and gastric mucosa is carried out as described in the publication of O Tofanetti et al., “Effect of nimesulide on cyclo-oxygenase activity in rat gastric mucosa and inflammatory exudate”, Med Sci Res 17, 745–746 (1989). The respective part of the description is hereby incorporated by reference and forms part of the present disclosure.
(§3) For this text 6 male wistar rats (Interfauna-St Feliú de Codines, Barcelona) of approximately 200 g (each approximately 6 weeks of age) are used. The compounds to be tested are administered via oral route in gum Arabic at 5% (weight/volume) at a rate of 10 ml/kg.
(§4) One hour after administration of the compounds and under halothane anaesthesia, each rat is implanted subcutaneously in the interescapular area a 40×15×5 mm polyester sponge, soaked in a 0.5% suspension of carrageenan. […]
(§5) The rats's stomachs are removed and the gastric mucosa is detached from the underlying layers and by means of a 10 mm diameter die, mucosa samples from an area between the gastric corpus and pyloric antrum are taken. […] PGE2 concentrations from the inflammatory exudates and the gastric mucosa are determined by means of immunoassay reagents of Cayman Chemical kit, Ann Arbor, Mich., U.S.A. (Catalogue number: 514010) according to the manufacturer's instructions.

rats [3] = assay: Test for activity against edema in rats (carrageenin paw); conditions: Rattus norvegicus, oral route
Experimental: IV. Test for Activity Against Edema in Rats
The test for activity against edema is carried out as described in the publication of Winter et al., Proc. Soc. Exp. Biol. Med. 111, 544–547, (1962). The respective part of the description is hereby incorporated by reference and forms part of the present disclosure.
At the beginning of each experimental session the rats are deprived of food, and kept in cages within groups of 5 animals, the cages being fitted with a grating on the floor to prevent coprophagy. After a period of 24 hours without food, the animals are marked in a suitable way, weighed and hydrated via oral administration of 30 ml/kg body weight of tap water. Half an hour after the hydratisation, the compounds to be tested are administered via oral route, in an amount of 10 ml/kg body weight as a suspension in gum arabic at 5% (weigh/volume). One hour after administration of the compounds the animals receive 0.1 ml of the inflammation causing agent (carrageenin 1% weight/volume, in sterile solution), injected via subplantar route into the right hind paw of the rats. Immediately after the carrageenin injection the volume of the injected paw is determined using a plethysmometer. The readings are expressed in ml. Readings of the volume of the paw are taken every hour after administration of the carrageenin for 7 hours.

PGE2 production [4] = assay: PGE2 production in rat gastric mucosa; conditions: rats, oral route, read-out: PGE2 gastric mucose ED50
Experimental: as §1, §2, §3, §4, §5

Row | Compound | ED50 (rats [1]) [mg/kg] | ED50 (PGE2 production [2]) [mg/kg] | ED50 (rats [3]) [mg/kg] | ED50 (PGE2 production [4]) [mg/kg]
1 | CC(C)(C)c1cc(C(=O)N2CC(O)C2)cc(C(C)(C)C)c1O [Example 1, (3,5-di-tert-butyl-4-hydroxy-phenyl)-(3-hydroxy-azetidin-1-yl)-methanone] | 0.4 | 0.28 | 3 | 0.16
2 | CC1(O)CN(C(=O)c2cc(C(C)(C)C)c(O)c(C(C)(C)C)c2)C1 [Example 3, (3,5-di-tert-butyl-4-hydroxy-phenyl)-(3-hydroxy-3-methyl-azetidin-1-yl)-methanone] | 0.14 | 0.5 | 58 | 7.3
3 | CC(C)(C)c1cc(CN2CC(O)C2)cc(C(C)(C)C)c1O [Example 17, 1-(3,5-di-tert-butyl-4-hydroxy-benzyl)-azetidin-3-ol] |  |  | 62 | 
